Structures are written as SMILES.

Test [1] can be described thus: antithrombotic effect (thrombosis prophylaxis) compared with Nafazatrom. Format: in vivo. Particulars: for antithrombotischer Effekt: at 100-fold dose increase compared with Nafazatrom.
For test [2], the system named is B-16a-Zellen. Briefly: full metastasis model: subcutaneous injection of B-16a cells, oral treatment for 27 days, metastatic lung nodules (Beispiel 4). In kind it is in vivo, C57BL/6J-Mäuse. To be noted: for Metastasenpunkte: lungs at 28 days; for Metastasenindex: treated / control points. An excerpt:
(§1) Wie bereits weiter oben festgestellt wurde, ist die Metastase eine einzelne Erscheinung, die durch eine Reihe komplizierter Vorgänge verursacht wird. Gegenwärtig finden zwei "Modell"-Systeme für die Untersuchung der in vivo-Metastase verbreitete Anwendung. Das erste Modellsystem umfaßt die subkutante Injektion der Tumorzellen in das Tier. Die subkutante Injektion der Tumorzellen und anschließende Entwicklung eines Primärtumors, gefolgt von spontaner Metastase, wird als "volle" Metastase betrachtet. Ein anderes Modellsystem umfaßt die Injektion der Tumorzellen durch die Schwanzvene. In Anbetracht der Komplexität der Metastase gilt die Schwanzvenen-Injektion nur als partielles Modellsystem, da es nur die Vorgänge während des letzten Teils der Metastase wiedergibt. Das Schwanzvenen-Modellsystem gilt jedoch andererseits als außerordentlich günstig im Hinblick auf eine Standardisierung der Versuchsbedindungen Lvgl. "Methods in Cancer Research", Kapitel VII, Academic Press, Inc., 19787.
Die Wirkung der Verabreichung der Pyrazolon-Verbindungen über einen längeren Zeitraum hinweg auf die Zahl der'metastatischen Lungen-Kolonien des B-16a Melanoms wurde wie nachstehend für Verbindung A beschrieben bestimmt.
10 mg Verbindung A wurden in 0,5 % Tylose aufgenommen und dann durch Behandlung mit Ultraschall (30 sec) gelöst. Die endgültige Konzentration der Substanz wurde durch Verdünnung der Lösung mit 0,5 % Tylose eingestellt. Die Substanz wurde jeden Tag neu gelöst.
Syngeneische C57BL/6J-Mäusen wurde eine Suspension von 1,0 x 10^5 B-16a-Zellen subkutan injiziert, die wie vorstehend beschrieben hergestellt wurde. Vom Tage nach der Tumorzell-Injektion ab erhielten die Mäuse 27 Tage peroral eine tägliche Einzeldosis von 0 bis 100 mg/kg der Pyrazolon-Verbindung. Die Kontroll-Mäuse und die behandelten Mäuse wurden unter identischen Bedingungen der Temperatur, Lichteinwirkungsdauer, Ernährung etc. gehalten. Die Mäuse wurden nach 28 Tagen getötet und die Zahl und Größe der metastatischen Knötchen in der Lunge bestimmt.

The test system of test [3] is B-16a Tumorzellen. Briefly: partial metastasis model: tail vein injection of B-16a tumour cells, oral pretreatment for three days (Beispiel 1). Format: in vivo, C57BL/6J-Mäuse. Particulars: 3 days before tail vein injection; for Metastasenpunkte: lungs 24 days after injection, score 1-10, mean ± S, n = 10; for Metastasenindex: treated group points / control group points. The protocol:
Es wurden dieselben Tumor-Zellinien wie in EP-A 0 062 319 verwendet und auf die gleiche Weise in vivo gehalten. ;
Tumorzellen wurden dann aseptisch aus den Wirtsmäusen entnommen und unter Anwendung sequenzieller Collagenase-Verdauung dispergiert, wie unten beschrieben. Die entnommenen Tumoren wurden in Würfel (4 x 4 mm) zerteilt, und das gewürfelte Gewebe wurde auf 6 bis 8 sterile Polycarbonat-Erlenmeyerkolben aufgeteilt (etwa 500 mg/Kolben). Ein Anteil von 10 ml einer "Tumordispersionslösung" (TDS) wurde in jeden Kolben hinzugefügt.
Das gewürfelte Gewebe in der TDS wurde dann unter Luft in einem Dubnoff-Stoffwechsel-Schüttler (90 Schwingungen/min) dispergiert (30 min; 37°C). Die überstände wurden durch ein Seihtuch in sterile 50 ml-Rundboden-Zentrifugenröhrchen auf Polycarbonat gesammelt und 10 min (25°C) mit 900 U/min(100 g) in einem Sorvall SS-34 -Rotor zentrifugiert. Nach dem Zentrifugieren wurde die überstehende Fraktion verworfen. Das erhaltene zelluläre Material (Pellets) wurde zweimal mit MEM-Lösung gewaschen, wieder in MEM suspendiert und bei 4°C gehalten.
Zu dem verbleibenden gewürfelten Gewebe wurde ein Anteil von 10 ml TDS hinzugefügt, und das Gewebe wurde in einem Stoffwechselschüttler inkubiert, wie oben beschrieben, außer daß die Zeitdauer 60 min betrug. Das Zentrifugieren wurde wiederholt, und die wieder suspendierten Zellen wurden vereinigt.
as §1
5 mg des jeweiligen Pyrazolonderivats wurden in 0,5 % Tylose aufgenommen und dann durch Behandlung mit Ultraschall (30 sec) gelöst. Die endgültige Konzentration der Substanzen wurde durch Verdünnung der Lösungen mit 0,5 % Tylose eingestellt.
(§2) Syngeneische C57BL/6J-Mäuse wurden während eines Zeitraumes von drei Tagen mit 0,005 mg/kg bis 5 mg/kg der beiden Substanzen in 0,2 ml 0,5 % Tylose peroral behandelt. Kontrolltiere erhielten täglich 0,2 ml 0,5 % Tylose. Am vierten Tag wurde den vorbehandelten Mäusen und Kontrollmäusen ein Suspension von 5 x 10^4 B-16a Tumorzellen über die Schwanzvene injiziert. Die Kontrollmäuse und die behandelten Mäuse wurden unter identischen Bedingungen der Temperatur, Lichteinwirkungsdauer, Ernährung etc. gehalten. Die Mäuse wurden 24 Tage nach erfolgter Schwanzvenen-Injektion getötet, und ihre Lungengewebe wurden untersucht. Der Grad der Metastasierung wurde nach Zahl und Größe der makroskopisch sichtbaren Metastasen mit Punktzahlen von 1 - 10 bewertet, welche die Relation zwischen Metastasenbedeckter und - freier Organfläche ausdrücken. Dabei werden die Punktzahlen nach folgenden Rahmenkriterien vergeben: 1 = 1 - 2 gerade erkennbare Metastasen, 5 = etwa 50 % der Organoberfläche ist von Metastasen bedeckt, 10 = fast keine normale Organoberfläche sichtbar.

Test [4] concerns B-16a Tumorzellen. Briefly: partial metastasis model: tail vein injection of B-16a tumour cells, oral treatment 3 days before and 2 days after tumour injection (Beispiel 2 and 3). In kind it is in vivo, C57BL/6J-Mäuse. To be noted: for Metastasenpunkte: score 1-10, mean ± S, n = 10; for Metastasenindex: treated / control points. The protocol: as §2
5 mg des jeweiligen Pyrazolonderivats wurden in 0,5 % Ty-lose aufgenommen und dann durch Behandlung mit Ultraschall (30 sec) gelöst. Die endgültige Konzentration der Substanzen wurde durch Verdünnung der Lösungen mit 0,5 % Tylose eingestellt.
Syngeneische C57BL/6J-Mäuse wurden während eines Zeitraumes von drei Tagen vor der Tumorinjektion und 2 Tagen nach der Tumorinjektion täglich mit 0,005 mg/kg bis 5 mg/kg der beiden Substanzen in 0,2 ml 0,5 % Tylose peroral behandelt. Kontrolltiere erhielten 0,2 ml 0,5 % Tylose. Am vierten Tag wurde den. vorbehandelten Mäusen und Kontrollmäusen eine Suspension von 5 x 10^4 B-16a Tumorzellen über die Schwanzvene injiziert.
20 mg des jeweiligen Pyrazolonderivats wurden in 0,5 % Tylose aufgenommen und dann durch Behandlung mit Ultraschall (30 sec) gelöst. Die endgültige Konzentration der Substanzen wurde durch Verdünnung der Lösungen mit 0,5 % Tylose eingestellt.
Syngeneische Tiere wurden während eines Zeitraumes von drei Tagen vor der Tumorinjektion und 2 Tagen nach der Tumorinjektion täglich mit 2 mg bis 200 mg/kg der Substanzen in 0,2 ml 0,5 % Tylose peroral behandelt. Kontrolltiere erhielten 0,2 ml 0,5 % Tylose. Am vierten Tag wurde den vorbehandelten Mäusen und Kontrolltieren eine Suspension von 5 x 10^4 B-16a Tumorzellen über die Schwanzvene injiziert.

Setting [5] is: 0,5 mg/kg peroral daily for 27 days after s.c. tumour cell injection.
[6] abbreviates: 5 mg/kg peroral daily for 27 days after s.c. tumour cell injection.
Setting [7] is: 25 mg/kg peroral daily for 27 days after s.c. tumour cell injection.
Where [8] appears, read: 50 mg/kg peroral daily for 27 days after s.c. tumour cell injection.
Setting [9] is: 75 mg/kg peroral daily for 27 days after s.c. tumour cell injection.
Setting [10] is: 100 mg/kg peroral daily for 27 days after s.c. tumour cell injection.

As to `CC1=NN(CCOc2ccc3ccccc3c2)C(=O)C1C` (stereo not shown) [3,4-Dimethyl-Derivat], in test [1], the “antithrombotischer Effekt” value is “kein antithrombotischer Effekt feststellbar”.
For the compound `O=C1CC(Cc2ccccc2)=NN1CCOc1ccc2ccccc2c1` [3-Benzyl-], the “antithrombotischer Effekt” value in test [1] is listed as “kein antithrombotischer Effekt feststellbar”.
The same measure, in the same setting: the same measure for `CC(C)C1=NN(CCOc2ccc3ccccc3c2)C(=O)C1` [3-Isopropyl-]: “kein antithrombotischer Effekt feststellbar”.
Same read-out and setting: as for `CCCC1=NN(CCOc2ccc3ccccc3c2)C(=O)C1` [3-n-Propyl-], the entry is “kein antithrombotischer Effekt feststellbar”.
As for `CCC1=NN(CCOc2ccc3ccccc3c2)C(=O)C1` [Ethyl in der 3-Position des Nafazatroms], in test [1] (fraction of the effect of Nafazatrom), the “Wirkung bei der Thromboseprophylaxe” value is on record as 1/30.
For the compound `CC1=NN(CCOc2ccc3ccccc3c2)C(=O)C1C` (stereo not shown) [Verbindung A], the Metastasenpunkte in test [2] (setting [5]) is recorded as 2,9±2,6; in test [2] (setting [6]), 2,7±2,0; in test [2] (setting [7]) it was 2,2±1,6; in test [2] (setting [8]) it was 2,1±1,5; in test [2] (setting [9]) it was 1,3±1,4; in test [2] (setting [10]) it was 2,8±1,7. Moreover, the Metastasenpunkte is given as 5,3±1,5 in test [3] (0,05 mg/kg peroral), 4,1±1,4 in test [3] (0,5 mg/kg peroral), 2,6±1,1 in test [3] (0,005 mg/kg peroral) and 2,3±1,2 in test [3] (5 mg/kg peroral). In addition, the Metastasenindex in test [2] (setting [5]) was 0,66; in test [2] (setting [6]), 0,61; in test [2] (setting [7]) it was 0,50; in test [2] (setting [8]), 0,48; in test [2] (setting [9]) it was 0,30; in test [2] (setting [10]) it was 0,64. Further, the Metastasenindex is given as 0,76 in test [3] (0,05 mg/kg peroral), 0,59 in test [3] (0,5 mg/kg peroral), 0,37 in test [3] (0,005 mg/kg peroral) and 0,33 in test [3] (5 mg/kg peroral).
Consider `CC1=NN(CCOc2ccc3ccccc3c2)C(=O)C1(C)C` [Verbindung B], for which the Metastasenpunkte is 4,2±2,6 in test [3] (0,05 mg/kg peroral), 2,6±0,8 in test [3] (0,5 mg/kg peroral), 4,9±2,2 in test [3] (0,005 mg/kg peroral) and 4,5±2,3 in test [3] (5 mg/kg peroral). Moreover, the Metastasenindex is 0,60 in test [3] (0,05 mg/kg peroral), 0,37 in test [3] (0,5 mg/kg peroral), 0.70 in test [3] (0,005 mg/kg peroral) and 0,64 in test [3] (5 mg/kg peroral).
Take `CC1=NN(Cc2ccoc2)C(=O)C1` [Verbindung C]: the Metastasenpunkte in test [4] (0,05 mg/kg peroral daily) is reported as 4,3±1,7; in test [4] (0,5 mg/kg peroral daily) it was 4,7±2,1; in test [4] (0,005 mg/kg peroral daily), 5,2±2,0; in test [4] (5 mg/kg peroral daily) it was 5,3±2,0. Moreover, the Metastasenindex is 0,72 in test [4] (0,05 mg/kg peroral daily), 0,78 in test [4] (0,5 mg/kg peroral daily), 0,87 in test [4] (0,005 mg/kg peroral daily) and 0,88 in test [4] (5 mg/kg peroral daily).
`CC1=NN(C(C)c2ccsc2)C(=O)C1` (stereo not shown) [Verbindung D]: the Metastasenpunkte is 3,8±1,8 in test [4] (0,05 mg/kg peroral daily), 3,6±1,7 in test [4] (0,5 mg/kg peroral daily), 4,7±1,9 in test [4] (0,005 mg/kg peroral daily) and 3,8±1,4 in test [4] (5 mg/kg peroral daily). Moreover, the Metastasenindex in test [4] (0,05 mg/kg peroral daily) is listed as 0,63; in test [4] (0,5 mg/kg peroral daily) it was 0,60; in test [4] (0,005 mg/kg peroral daily), 0,78; in test [4] (5 mg/kg peroral daily), 0,63.
On to `COc1cc(N2N=C(N)CC2=O)ccc1C` [Verbindung E], for which the figures for the Metastasenpunkte in test [4] (2 mg/kg peroral daily), in test [4] (20 mg/kg peroral daily) and in test [4] (200mg/kg peroral daily) were 2,7±1,7, 2,5±1,0 and 2,7±1,5, respectively. For the same compound, the figures for the Metastasenindex in test [4] (2 mg/kg peroral daily), in test [4] (20 mg/kg peroral daily) and in test [4] (200mg/kg peroral daily) were 0,66, 0,61 and 0,66, respectively.
`CCCCCCCCCCCCCCCCCC1=NN(c2ccc(Oc3ccccc3)c(S(=O)(=O)O)c2)C(=O)C1` [Verbindung F]: the Metastasenpunkte is on record as 2,8±1,0 in test [4] (2 mg/kg peroral daily), 3,0±1,1 in test [4] (20 mg/kg peroral daily) and 2,6±1,0 in test [4] (200mg/kg peroral daily). In addition, the results for the Metastasenindex in test [4] (2 mg/kg peroral daily), in test [4] (20 mg/kg peroral daily) and in test [4] (200mg/kg peroral daily) were 0,68, 0,73 and 0,63, respectively.

(Values after patent EP0121856A2, “Use of pyrazolone derivatives against the growth of tumour cells and their metastases, medicaments therefor and their preparation” (BAYER AG, priority 1983, dated 1984).)
